target: recombinant DYRK1A kinase (Homo sapiens (Human), UniProt Q13627); assay: DYRK1A kinase assay (Ser/Thr 18 peptide Z-lyte FRET assay); format: biochemical; conditions: recombinant DYRK1A 0.25 µg/mL, ATP 15 µM, Ser/Thr peptide 18 4 µM, one hour at room temperature; table head prints EC50, method says IC50
Method: Representative compounds were screened using the assay procedure for DYRK1A kinase activity as described below.
Each compound was dissolved in DMSO as a 10 mM stock and used to prepare compound source plates. Serial dilution (1:3, 11-point dose-response curves from 10 µM to 0.00016 µM) and compound transfer was performed using the ECHO 550 (Labcyte, Sunnyvale, CA) into 1536-well black-walled round bottom plates (Corning).
The DYRK1A kinase assay was run using the Ser/Thr 18 peptide Z-lyte assay kit according to manufacturer’s instructions (Life Technologies- a Division of Thermo-Fisher). This is a non-radioactive assay using fluorescence resonance energy transfer (FRET) between coumarin and fluorescein to detect kinase activity which is represented as a ratio of coumarin emission/fluorescein emission.
Briefly, recombinant DYRK1A kinase, ATP and Ser/Thr peptide 18 were prepared in 1X Kinase buffer to final concentrations of 0.25 µg/mL, 15 µM, and 4 µM respectively. The mixture was allowed to incubate with the representative compounds for one hour at room temperature. All reactions were performed in duplicate. Unphosphorylated (“0% Control”) and phosphorylated (“100% control”) forms of Ser/Thr 18 served as control reactions. Additionally, an 11-point dose-response curve of Staurosporine (1uM top) was run to serve as a positive compound control.
After incubation, Development Reagent A was diluted in Development Buffer then added to the reaction and allowed to further incubate for one hour at room temperature. The plate was read at Ex 400 Em 455 to detect the coumarin signal and Ex 400 Em 520 to measure the signal (EnVision Multilabel Plate Reader, PerkinElmer).
The Emission ratio (Em) was calculated as a ratio of the coumarin (C) emission signal (at 445 nm)/Fluorescein (F) emission signal (at 520 nm). The percent phosphorylation was then calculated using the following formula: [1 — ((Em ratio X F100%)—C100%)/ ((C0%—C100%) + (Em ratio X (F100% - F0%)))]. Dose-response curves were generated, and inhibitory concentration (IC50) values were calculated using non-linear regression curve fit in the Dotmatics’ Studies Software (Bishops Stortford, UK).

| EC50 [nM] | Compound |
| --- | --- |
| 4 | 1-(4-((5-(1-(2,2-Difluoroethyl)-2-methyl-1H-imidazo[4,5-b]pyridin-6-yl)pyrrolo[2, 1-f] [1,2,4]triazin-2-yl)amino)piperidin- 1-yl)ethan-1 -one [Compound 1910] |
| 81 | COCCNc1ncc2c(-c3ccc4nccn4c3)ccn2n1 [Compound 9, 5-(Imidazo[1,2-a]pyridin-6-yl)-N-(2-methoxyethyl)pyrrolo[2,1-f][1,2,4] triazin-2-amine] |
| 48 | c1cn2cc(-c3ccn4nc(NCC5CC5)ncc34)ccc2n1 [Compound 16, N-(Cyclopropylmethyl)-5-(imidazo[1,2-a]pyridin-6-yl)pyrrolo[2,1-f][1,2,4] triazin-2-amine] |
| 61 | c1cn2cc(-c3ccn4nc(NCC5CCCO5)ncc34)ccc2n1 (stereo not shown) [Compound 21, 5-(Imidazo[1,2-a]pyridin-6-yl)-N-((tetrahydrofuran-2-yl)methyl)pyrrolo[2,1-f][1,2,4]triazin-2-amine] |
| 40 | c1cn2cc(-c3ccn4nc(NC5CCOCC5)ncc34)ccc2n1 [Compound 67, 5-(Imidazo[1,2-a]pyridin-6-yl)-N-(tetrahydro-2H-pyran-4-yl)pyrrolo[2,1-f] [1,2,4]triazin-2-amine] |
| 45 | CC(C)(F)CNc1ncc2c(-c3ccc4nccn4n3)ccn2n1 [Compound 145, N-(2-Fluoro-2-methylpropyl)-5-(imidazo [1,2-b]pyridazin-6-yl)pyrrolo[2,1-f] [1,2,4]triazin-2-amine] |
| 33 | CC(C)Nc1ncc2c(-c3cnc4nccn4c3)ccn2n1 [Compound 214, 5-(Imidazo[1,2-a]pyrimidin-6-yl)-N-isopropylpyrrolo[2,1-f][1,2,4]triazin-2-amine] |
| 6 | CC(C)CNc1ncc2c(-c3cnc4nccn4c3)ccn2n1 [Compound 215, 5-(Imidazo[1,2-a]pyrimidin-6-yl)-N-isobutylpyrrolo[2,1-f][1,2,4]triazin-2-amine] |
| 13 | FC(F)(F)CNc1ncc2c(-c3cnc4nccn4c3)ccn2n1 [Compound 218, 5-(Imidazo[1,2-a]pyrimidin-6-yl)-N-(2,2,2-trifluoroethyl)pyrrolo[2,1-f] [1,2,4]triazin-2-amine] |
| 14 | C[C@@H](Nc1ncc2c(-c3cnc4nccn4c3)ccn2n1)C(F)(F)F [Compound 219, (R)-5-(Imidazo[1,2-a]pyrimidin-6-yl)-N-(1,1,1-trifluoropropan-2-yl)pyrrolo [2,1-f][1,2,4]triazin-2-amine] |
| 29 | CC(C)(CNc1ncc2c(-c3cnc4nccn4c3)ccn2n1)C(F)(F)F [Compound 221, 5-(Imidazo[1,2-a]pyrimidin-6-yl)-N-(3,3,3-trifluoro-2,2-dimethylpropyl) pyrrolo[2,1-f][1,2,4]triazin-2-amine] |
| 101 | COC[C@@H](C)Nc1ncc2c(-c3cnc4nccn4c3)ccn2n1 [Compound 223, (R)-5-(Imidazo[1,2-a]pyrimidin-6-yl)-N-(1-methoxypropan-2-yl)pyrrolo[2,1-f][1,2,4]triazin-2-amine] |
| 9 | c1cn2cc(-c3ccn4nc(NCC5CC5)ncc34)cnc2n1 [Compound 229, N-(Cyclopropylmethyl)-5-(imidazo[1,2-a]pyrimidin-6-yl)pyrrolo[2,1-f] [1,2,4]triazin-2-amine] |
| 9 | FC1(F)CC(Nc2ncc3c(-c4cnc5nccn5c4)ccn3n2)C1 [Compound 236, N-(3,3-Difluorocyclobutyl)-5-(imidazo[1,2-a]pyrimidin-6-yl)pyrrolo[2,1-f] [1,2,4]triazin-2-amine] |
| 3 | CC1(C)CC(Nc2ncc3c(-c4cnc5nccn5c4)ccn3n2)C1 [Compound 237, N-(3,3-Dimethylcyclobutyl)-5-(imidazo[1,2-a]pyrimidin-6-yl)pyrrolo[2,1-f] [1,2,4]triazin-2-amine] |
| 6 | CO[C@H]1C[C@@H](Nc2ncc3c(-c4cnc5nccn5c4)ccn3n2)C1 [Compound 239, 5-(Imidazo[1,2-a]pyrimidin-6-yl)-N-(cis-3-methoxycyclobutyl)pyrrolo[2,1-f] [1,2,4]triazin-2-amine] |

Continued, compound first:

| Compound | EC50 [nM] |
| --- | --- |
| CC(C)CNc1ncc2c(-c3ccc4nccn4c3)ccn2n1 [Compound 2, 5-(Imidazo[1,2-a]pyridin-6-yl)-N-isobutylpyrrolo[2,1-f][1,2,4]triazin-2-amine] | 41 |
| CC(F)(F)CNc1ncc2c(-c3ccc4nccn4c3)ccn2n1 [Compound 4, N-(2,2-Difluoropropyl)-5-(imidazo [1,2-a]pyridin-6-yl)pyrrolo[2,1-f][1,2,4] triazin-2-amine] | 73 |
| CC(C)OCCNc1ncc2c(-c3ccc4nccn4c3)ccn2n1 [Compound 11, 5-(Imidazo[1,2-a]pyridin-6-yl)-N-(2-isopropoxyethyl)pyrrolo[2,1-f][1,2,4] triazin-2-amine] | 116 |
| CC1(CNc2ncc3c(-c4ccc5nccn5c4)ccn3n2)CC1 [Compound 12, 5-(Imidazo[1,2-a]pyridin-6-yl)-N-((1-methylcyclopropyl)methyl)pyrrolo[2,1-f][1,2,4]triazin-2-amine] | 45 |
| c1cn2cc(-c3ccn4nc(NCC5COC5)ncc34)ccc2n1 [Compound 20] | 67 |
| CN1CC(Nc2ncc3c(-c4ccc5nccn5c4)ccn3n2)C1 [Compound 64, 5-(Imidazo[1,2-a]pyridin-6-yl)-N-(1-methylazetidin-3-yl)pyrrolo[2,1-f] [1,2,4]triazin-2-amine] | 192 |
| CN1CCC(Nc2ncc3c(-c4ccc5nccn5c4)ccn3n2)CC1 [Compound 66, 5-(Imidazo[1,2-a]pyridin-6-yl)-N-(1-methylpiperidin-4-yl)pyrrolo[2,1-f] [1,2,4]triazin-2-amine] | 264 |
| CC(C)(F)CNc1ncc2c(-c3ccc4ncc(C(=O)N5CCCC5)n4c3)ccn2n1 [Compound 74, (6-(2-((2-Fluoro-2-methylpropyl)amino)pyrrolo[2,1-f][1,2,4]triazin-5-yl)imidazo[1,2-a]pyridin-3-yl)(pyrrolidin-1-yl)methanone] | 5100 |
| FC(F)(F)CCNc1ncc2c(-c3cnc4nccn4c3)ccn2n1 [Compound 220, 5-(Imidazo[1,2-a]pyrimidin-6-yl)-N-(3,3,3-trifluoropropyl)pyrrolo[2,1-f] [1,2,4]triazin-2-amine] | 14 |
| CC1(CNc2ncc3c(-c4cnc5nccn5c4)ccn3n2)CC1 [Compound 225, 5-(Imidazo[1,2-a]pyrimidin-6-yl)-N-((1-methylcyclopropyl)methyl)pyrrolo [2,1-f][1,2,4]triazin-2-amine] | 11 |
| FC(F)(F)C1(CNc2ncc3c(-c4cnc5nccn5c4)ccn3n2)CC1 [Compound 226, 5-(Imidazo[1,2-a]pyrimidin-6-yl)-N-((1-(trifluoromethyl)cyclopropyl)methyl)pyrrolo[2,1-f][1,2,4]triazin-2-amine] | 11 |
| FC1(CNc2ncc3c(-c4cnc5nccn5c4)ccn3n2)CCC1 [Compound 227, N-((1-Fluorocyclobutyl)methyl)-5-(imidazo[1,2-a]pyrimidin-6-yl)pyrrolo [2,1-f][1,2,4]triazin-2-amine] | 4 |
| C[C@H](Nc1ncc2c(-c3cnc4nccn4c3)ccn2n1)C1CC1 [Compound 230, (S)-N-(1-Cyclopropylethyl)-5-(imidazo[1,2-a]pyrimidin-6-yl)pyrrolo[2,1-f] [1,2,4]triazin-2-amine] | 58 |
| C[C@@H](Nc1ncc2c(-c3cnc4nccn4c3)ccn2n1)C1CC1 [Compound 231, (R)-N-(1-Cyclopropylethyl)-5-(imidazo[1,2-a]pyrimidin-6-yl)pyrrolo[2,1-f] [1,2,4]triazin-2-amine] | 28 |
| FC(F)(CNc1ncc2c(-c3cnc4nccn4c3)ccn2n1)C1CC1 [Compound 232, N-(2-Cyclopropyl-2,2-difluoroethyl)-5-(imidazo[1,2-a]pyrimidin-6-yl) pyrrolo[2,1-f][1,2,4]triazin-2-amine] | 9 |
| c1cn2cc(-c3ccn4nc(NC5CCC5)ncc34)cnc2n1 [Compound 235, N-Cyclobutyl-5-(imidazo[1,2-a]pyrimidin-6-yl)pyrrolo[2,1-f][1,2,4]triazin-2-amine] | 377 |
| CO[C@H]1C[C@H](Nc2ncc3c(-c4cnc5nccn5c4)ccn3n2)C1 [Compound 240, 5-(Imidazo[1,2-a]pyrimidin-6-yl)-N-(trans-3-methoxycyclobutyl)pyrrolo [2,1-f] [1,2,4]triazin-2-amine] | 14 |
| CCO[C@H]1C[C@@H](Nc2ncc3c(-c4cnc5nccn5c4)ccn3n2)C1 [Compound 242, N-(cis-3-Ethoxycyclobutyl)-5-(imidazo[1,2-a]pyrimidin-6-yl)pyrrolo[2,1-f] [1,2,4]triazin-2-amine] | 5 |
